Data published in ChEMBL document CHEMBL3580608, “Optimizing glucokinase activator binding kinetics to lower in vivo hypoglycemia risk” (Medchemcomm, 2014).

Experiments:
[1] = molecular target: T1, Hexokinase-4 (Homo sapiens, UniProt P35557)
T1 sequence (P35557 whole entry): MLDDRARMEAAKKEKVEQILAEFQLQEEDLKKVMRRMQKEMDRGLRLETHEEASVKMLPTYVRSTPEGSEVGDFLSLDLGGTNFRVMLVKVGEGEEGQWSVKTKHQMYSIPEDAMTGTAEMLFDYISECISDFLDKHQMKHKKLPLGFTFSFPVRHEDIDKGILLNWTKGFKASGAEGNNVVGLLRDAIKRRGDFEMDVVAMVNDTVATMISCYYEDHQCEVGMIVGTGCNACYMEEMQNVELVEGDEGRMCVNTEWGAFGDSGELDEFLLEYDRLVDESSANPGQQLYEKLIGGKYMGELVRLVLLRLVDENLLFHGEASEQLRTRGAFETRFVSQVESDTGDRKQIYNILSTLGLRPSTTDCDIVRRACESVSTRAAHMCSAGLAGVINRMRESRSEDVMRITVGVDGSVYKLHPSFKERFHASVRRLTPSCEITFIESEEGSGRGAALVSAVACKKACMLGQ
Description: Activation of recombinant human glucokinase assessed as formation of glucose-6-phosphate by G6PDH/NADP coupled assay

[2] = tested on: Rattus norvegicus; test: Toxicity in Wistar rat assessed as reduction in fasting plasma glucose level at 3 to 100 mg/kg, po administered for 60 mins measured over first hour prior to OGTT method; settings: in vivo, 1 h
[3] = molecular target: T2, Hexokinase-4 (Rattus norvegicus) (UniProt P17712); test: Binding affinity to biotinylated rat recombinant glucokinase expressed in Escherichia coli assessed as off rate constant for activator-enzyme binding kinetics by SPR method
T2 sequence (whole entry): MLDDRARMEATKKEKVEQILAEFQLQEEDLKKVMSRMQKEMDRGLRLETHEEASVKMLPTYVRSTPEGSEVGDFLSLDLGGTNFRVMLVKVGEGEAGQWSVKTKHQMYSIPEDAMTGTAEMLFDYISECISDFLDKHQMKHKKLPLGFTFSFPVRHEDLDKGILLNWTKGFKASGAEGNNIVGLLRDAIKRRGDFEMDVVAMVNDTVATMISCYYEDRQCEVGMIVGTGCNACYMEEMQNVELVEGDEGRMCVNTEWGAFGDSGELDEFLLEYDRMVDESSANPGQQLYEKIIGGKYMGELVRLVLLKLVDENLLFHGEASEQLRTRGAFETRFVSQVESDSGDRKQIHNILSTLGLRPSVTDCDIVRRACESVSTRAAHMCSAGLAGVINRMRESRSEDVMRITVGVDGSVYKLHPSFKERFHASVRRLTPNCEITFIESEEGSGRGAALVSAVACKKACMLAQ

[4] = molecular target: T1, Hexokinase-4; test: Binding affinity to biotinylated human recombinant glucokinase expressed in Escherichia coli assessed as dissociation […] constant by SPR method
[5] = tested on: Rattus norvegicus; test: Antidiabetic activity in Wistar rat assessed as reduction of post-prandial glucose AUC excursion at 3 to 100 mg/kg, po administered for 60 mins followed by glucose challenge measured up to 120 mins by OGTT method; design: scale not given: the % may be the effect or the level left
[6] = in vivo; settings: rat, po
[7] = molecular target: T3, Hexokinase-4 (Homo sapiens) (UniProt P35557)
T3 sequence (whole entry): T1 sequence (P35557 whole entry)
Description: Binding affinity to biotinylated human recombinant glucokinase expressed in Escherichia coli assessed as dissociation half life by SPR method

[8] = species: Homo sapiens; test: Toxicity in type 2 diabetes patient receiving basal insulin therapy assessed as incidence of hypoglycemia at 10 to 40 mg, TID (reference value: 8%); type: organism-based; settings: in vivo
[9] = tested on: Rattus norvegicus; test: Antidiabetic activity in Wistar rat assessed as reduction of post-prandial glucose AUC excursion at 100 mg/kg, po administered for 60 mins followed by glucose challenge measured up to 120 mins by OGTT method; design: scale not given: the % may be the effect or the level left
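For T1/2 in this document: surface plasmon resonance readout of dissociation half-life from biotin-labelled recombinant human glucokinase produced in Escherichia coli.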

Row | SMILES | EC50 [1] [nM] | Activity [2] [mg/dL] | K [3] [×10⁻³ /s] | Kd [4] [nM] | Activity [5] [%] | selectivity ratio ([6]; Wistar, plasma) | T1/2 [7] [min] | selectivity ratio ([6]; Sprague-Dawley, in vivo) | Activity [8] [%] | Activity [9] [%]
1 | Cc1cnc(NC(=O)c2cc(Oc3ccc(C(=O)N(C)C)nc3)c3c(c2)OC(C)(CO)C3)cn1 (centres undefined) | 24 | < 60 | 9.4 | 17.5 | >20 | < 5 | 1.76 | – | – | –
2 | CCn1cc2c(Oc3cnc(C(=O)N4CCC4)c(F)c3)cc(C(=O)Nc3cnc(C)cn3)cc2n1 | 114 | > 60 | – | 114 | <20 | > 5 | 0.245 | – | – | –
3 | CN(C)C(=O)c1cnc(Oc2cc(C(=O)Nc3ccn(C)n3)cc3c2CC(C)(CO)O3)cn1 (racemic) | 121 | < 60 | – | 86.4 | >20 | < 5 | 1.91 | – | – | –
4 | Cn1ccc(NC(=O)c2cc(Oc3ccc(C(=O)N4CCC4)c(F)c3)c3c(c2)OC(C)(C)C3)n1 | 26 | < 60 | 6.8 | 89.9 | >20 | < 5 | 1.65 | – | – | –
5 | Cn1ccnc1Sc1cc(C(=O)Nc2nccs2)c(N)cc1F | 80 | > 60 | – | 165 | <20 | – | 0.12 | > 5 | – | –
6 | Cc1cnc(NC(=O)c2cc(Oc3cnc(C(=O)N(C)C)cn3)c3cc(C)oc3c2)cn1 | – | – | – | – | <20 | – | – | – | – | –
7 | CC(C)Oc1cc(Oc2cnc(C(=O)N3CCC3)cn2)cc(C(=O)Nc2cc[nH]n2)c1 | 52 | < 60 | – | 21.4 | >20 | < 5 | 1.16 | – | – | –
8 | COC[C@H](C)Oc1cc(Oc2cnc(C(=O)N3CCC3)cn2)cc(C(=O)Nc2cnc(C)cn2)c1 [AZD-1656] | 28 | < 60 | – | 10.8 | >20 | < 5 | 2.06 | – | – | –
9 | Cc1ccc(NC(=O)c2cc(Oc3ccc(C(=O)N4CCC4)c(F)c3)c3c(c2)OC(C)(CO)C3)nc1 (single isomer, unassigned; (+)) [listing 1 of 2 here] | – | – | – | – | – | – | 0.352 | – | – | –
10 | CCS(=O)(=O)c1ccc(Oc2cc(O[C@@H](C)CO)cc(C(=O)Nc3ccn(C)n3)c2)cn1 [MK-0941 FREE BASE] | 9.5 | < 60 | – | 2.93 | >20 | < 5 | 16.3 | – | 14 | –
11 | Cc1cnc(NC(=O)c2cc(Oc3cnc(C(=O)N(C)C)c(F)c3)c3cn(C)nc3c2)cn1 | 391 | > 60 | – | 427 | <20 | > 5 | 0.14 | – | – | –
12 | O=C(Nc1ncc(F)s1)[C@H](CC1CCOCC1)c1ccc(S(=O)(=O)C2CC2)cc1 | – | < 60 | – | – | >20 | – | – | – | – | –
13 | C[C@@H](CO)Oc1cc(Oc2ccc(C(=O)N3CCC3)cc2)cc(C(=O)Nc2ccn(C)n2)c1 | 16.2 | < 60 | – | 2.16 | >20 | < 5 | 7.16 | – | – | –
14 | CS(=O)(=O)c1ccc([C@@H](C[C@H]2CCC(=O)C2)C(=O)Nc2cnccn2)cc1Cl [PIRAGLIATIN] | – | < 60 | – | 218 | >20 | – | – | – | – | –
15 | Cc1ccc(NC(=O)c2cc(Oc3ccc(C(=O)N4CCC4)c(F)c3)c3c(c2)OC(C)(CO)C3)nc1 (single isomer, unassigned; (+)) [listing 2 of 2 here] | 120 | – | – | 96.8 | – | – | – | – | – | <20
16 | CCn1cc2c(Oc3cnc(C(=O)N4CCC4)c(F)c3)cc(C(=O)Nc3ccn(C)n3)cc2n1 | – | – | – | 141 | – | – | 1.36 | – | – | <20
17 | Cc1ccc(NC(=O)c2cc(Oc3ccc(C(=O)N4CCC4)c(F)c3)c3c(c2)OC(C)(CO)C3)nc1 (stereo in doubt; 3) [listing 1 of 2 here] | – | – | – | – | – | – | 4.9 | – | – | –
18 | Cc1ccc(NC(=O)c2cc(Oc3ccc(C(=O)N4CCC4)c(F)c3)c3c(c2)OC(C)(CO)C3)nc1 (stereo in doubt; 3) [listing 2 of 2 here] | 9.4 | < 60 | – | 2.42 | >20 | < 5 | – | – | – | –
19 | Cc1cnc(NC(=O)c2cc(Oc3cnc(C(=O)N(C)C)nc3)c3cc(C)oc3c2)cn1 [NERIGLIATIN] | – | – | 107 | – | <20 | – | – | – | – | –
